Legend:
RAP1A = molecular target: T1, RAP1A (Homo sapiens, UniProt P62834); test: Auto-palmitoylation of recombinant RAP1A with Alkyne Palmitoyl-CoA (western blot); conditions: indicated concentrations, 30 mins (FIG. 6B)
T1 sequence (P62834 1-184): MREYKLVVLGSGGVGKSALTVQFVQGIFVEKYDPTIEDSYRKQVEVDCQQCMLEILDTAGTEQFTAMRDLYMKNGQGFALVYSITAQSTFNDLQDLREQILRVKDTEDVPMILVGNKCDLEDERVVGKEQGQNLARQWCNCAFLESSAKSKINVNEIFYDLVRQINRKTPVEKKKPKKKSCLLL
Protocol: (§1) Recombinant PCNA (12131-H07B, Sino Biological), RAP1A (PRO-848, Prospec-Tany TechnoGene), RRAS2 (PRO-728, Prospec-Tany TechnoGene), IDH1 (ab113858, Abcam), IDH1R132H (14132, Cayman) are obtained from commercially available source. Recombinant TEAD2 protein were made in-house. All the recombinant proteins contain a His-tag.
(§2) 500 ng of recombinant protein in 50 μL of MES buffer (50 mM, PH 6.4), was contacted with a solution of the covalent probe so that the final concentration of covalent probe in the reaction mixture is 10 μM of covalent probes. After incubation for 30 mins, 50 μL of sample mixture was treated with 5 μL of freshly prepared “click” mixture containing 100 μM TBTA (678937, Sigma-Aldrich), 1 mM TCEP (C4706, Sigma-Aldrich), 1 mM CuSO4 (496130, Sigma-Aldrich), 100 μM Biotin-Azide (1167-5, Click Chemistry Tools) and incubated for another 1 h. To the samples was then added 11 μL of 6×SDS loading buffer (BP-111R, Boston Bio-Products) and the resultant mixture was denatured at 95° C. for 5 mins. SDS-PAGE was used to analyze the samples. Labeling signal was detected by streptavidin-HRP antibody (1:3000, S911, Invitrogen). The total protein level was detected by primary anti-His-tag antibody (1:10000, MA1-21315, Invitrogen) and secondary anti-mouse antibodies (1:5000, 7076S, Cell Signaling).

IDH1WT = IDH1WT (Homo sapiens, UniProt O75874); test: Auto-palmitoylation of recombinant IDH1 WT with Alkyne Palmitoyl-CoA (western blot); conditions: indicated concentrations, 30 mins (FIG. 6D)
IDH1WT, sequence (O75874 whole entry): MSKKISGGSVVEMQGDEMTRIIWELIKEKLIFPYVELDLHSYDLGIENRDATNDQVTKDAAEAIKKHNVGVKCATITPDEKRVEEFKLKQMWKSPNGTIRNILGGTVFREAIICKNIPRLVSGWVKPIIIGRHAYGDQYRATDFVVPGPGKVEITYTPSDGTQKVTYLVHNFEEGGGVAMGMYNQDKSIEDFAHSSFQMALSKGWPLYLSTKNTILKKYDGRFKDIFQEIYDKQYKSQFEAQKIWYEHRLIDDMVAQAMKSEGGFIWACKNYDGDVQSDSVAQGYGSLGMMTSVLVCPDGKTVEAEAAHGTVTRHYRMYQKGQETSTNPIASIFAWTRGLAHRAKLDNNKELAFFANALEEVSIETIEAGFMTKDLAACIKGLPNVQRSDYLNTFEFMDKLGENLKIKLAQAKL
Protocol: as §1, §2

PCNA = PCNA (Homo sapiens, UniProt P12004); test: Auto-palmitoylation of recombinant PCNA with Alkyne Palmitoyl-CoA (western blot); conditions: indicated concentrations, 30 mins (FIG. 6A)
PCNA, sequence (P12004 whole entry): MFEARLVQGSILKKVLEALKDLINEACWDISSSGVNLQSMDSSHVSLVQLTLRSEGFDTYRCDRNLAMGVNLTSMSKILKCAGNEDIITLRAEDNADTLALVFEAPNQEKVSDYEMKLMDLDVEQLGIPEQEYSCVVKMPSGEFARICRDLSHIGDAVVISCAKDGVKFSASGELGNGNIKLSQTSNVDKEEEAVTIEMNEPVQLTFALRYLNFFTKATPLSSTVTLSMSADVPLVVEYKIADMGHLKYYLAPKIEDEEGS
Protocol: as §1, §2

RRAS2 = molecular target: T2, RRAS2 (Homo sapiens, UniProt P62070); test: Auto-palmitoylation of recombinant RRAS2 with Alkyne Palmitoyl-CoA (western blot); conditions: indicated concentrations, 30 mins (FIG. 6C)
T2 sequence (P62070 1-204): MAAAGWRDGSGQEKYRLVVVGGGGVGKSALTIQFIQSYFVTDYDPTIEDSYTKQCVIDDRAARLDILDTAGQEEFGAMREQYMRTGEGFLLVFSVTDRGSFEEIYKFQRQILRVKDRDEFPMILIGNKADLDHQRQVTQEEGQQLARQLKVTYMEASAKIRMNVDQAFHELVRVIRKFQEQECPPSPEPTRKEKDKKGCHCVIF
Protocol: as §1, §2

HEK293A cells = test: MS-based proteomics of proteins enriched by covalent probes; format: cell-based; conditions: for number of proteins collectively targeted by Compound A21, Compound B1 and Compound B4: HEK293A cells, Venn diagram (FIG. 4); for number of proteins enriched by the covalent probes also identified by SLC-ABPP: overlap with SLC-ABPP database (FIG. 5)
Protocol: For in-cell labeling, HEK293A cells with or without overexpression of proteins of interest were starved in DMEM medium with 10% dialyzed fetal bovine serum (DFBS) for 1 h and labeled using the covalent probes (10 μM) overnight. The cells were then washed and harvested using cold DPBS (14190250, Life Technologies). The cell pellets were isolated by centrifugation (500×g, 10 min) and lysed by TEA lysis buffer (50 mM TEA-HCl, pH 7.4, 150 mM NaCl, 1% Triton X-100, 0.2% SDS, 1×Protease inhibitor-EDTA free cocktail (05892791001, Roche), phosphatase inhibitor cocktail (P0044, Sigma-Aldrich)) on ice for 30 mins. The protein concentration was determined using Bio-Rad assay and adjusted to 1 mg/mL. For lysate labeling, HEK293A cells were grown in DMEM with 10% FBS. When confluence reached ˜90%, the cells were washed and harvested by cold DPBS. The cell pellets were isolated by centrifugation (500×g, 5 min) and resuspended with TEA lysis buffer (50 mM TEA-HCl, pH 7.4, 150 mM NaCl, 1% Triton X-100, IXProtease inhibitor-EDTA free cocktail, phosphatase inhibitor cocktail), incubated on ice for 15 mins, and then sonicated (7 s, 30% duty cycle, output setting=3). After centrifugation (17,000×g, 10 min), the supernatant is transferred to a clean tube. The protein concentration is determined using Bio-Rad assay and adjusted to 1 mg/mL. The lysate was then labeled with DMSO or probes (10 μM) at room temperature for 1 h with rotation. SDS was added to the lysate to a final concentration of 0.2% and the resultant solution retained for further use.
To 1.5 mg of proteomes from cell labeling or lysate labeling as described above were added 150 μL fresh prepared “click” mixture of TBTA (75 μL, 2 mM in 1:4 DMSO: t-BuOH), CuSO4 (30 μL, 50 mM in H2O), TCEP (30 μL, 50 mM in H2O) and Biotin-Azide (15 μL, 10 mM in DMSO). The samples were rotated at room temperature for 1 h. To these samples were then added MeOH (6 mL), CHCl3 (1.5 mL) and H2O (4.5 mL), and the resultant solution was mixed well. After centrifugation (17,000×g, 10 min), the aqueous layers were carefully aspirated leaving a protein disc between the organic and aqueous phases. The protein disc was washed with 6 mL of methanol and isolated by centrifugation (17,000×g, 10 min). The remaining protein pellet was collected and redissolved with 700 μL of 2% SDS in 0.1% PBST. The solution was diluted with 4.9 mL of 0.1% PBST and added 0.1% PBST-washed streptavidin agarose beads (150 μL, 1:1, sigma). After rotation at room temperature for 2 h, the beads were then pelleted by centrifugation (500×g, 5 min) and washed with 0.2% SDS in PBS (3×1 mL). The beads were transferred to a Protein Low-Binding tube and the immobilized proteins were digested by addition of urea (200 μL, 2.0 M in DPBS), CaCl2) (2.0 μL, 100 mM in H2O) and sequence grade porcine trypsin (2 μg; Promega). After digesting overnight at 37° C., the supernatant was transferred to a clean Protein Low-Binding, acidified with HCO2H (formic acid, 16 μL) and stored at −20° C. until the analyzed by LC-MS/MS.

TEAD2 = TEAD2 (Homo sapiens, UniProt Q15562); test: Labeling of TEAD2 by covalent probes in vitro (western blot); conditions: probe 1 μM, 30 mins, western blot (FIG. 1)
TEAD2, sequence (Q15562 whole entry, species assumed): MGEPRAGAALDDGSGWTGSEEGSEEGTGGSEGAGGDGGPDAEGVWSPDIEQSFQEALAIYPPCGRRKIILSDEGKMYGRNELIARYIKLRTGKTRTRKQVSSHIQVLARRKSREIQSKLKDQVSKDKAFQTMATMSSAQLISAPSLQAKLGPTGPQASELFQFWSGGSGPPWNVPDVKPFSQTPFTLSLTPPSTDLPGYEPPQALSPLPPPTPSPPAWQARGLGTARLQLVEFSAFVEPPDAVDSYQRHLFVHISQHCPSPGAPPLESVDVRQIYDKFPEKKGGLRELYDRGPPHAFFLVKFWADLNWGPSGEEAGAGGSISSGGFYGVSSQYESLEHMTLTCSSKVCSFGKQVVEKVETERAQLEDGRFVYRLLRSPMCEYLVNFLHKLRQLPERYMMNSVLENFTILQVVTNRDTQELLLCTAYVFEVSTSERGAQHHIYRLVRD
Protocol: as §1, §2

Myc-TEAD1 C344S mutant = molecular target: T3, Myc-TEAD1 C344S mutant (Homo sapiens, UniProt P28347, C359S); test: Labeling of transfected Myc-TEAD1 wild type or C344S mutant in HEK293A cells (streptavidin pulldown, western blot); format: cell-based; conditions: 10 μM overnight, C344S vs wild type (FIG. 3)
T3 construct: expressed in transfected cells; host or cells: HEK293A
T3 sequence (P28347 16-426 C359S limits assumed): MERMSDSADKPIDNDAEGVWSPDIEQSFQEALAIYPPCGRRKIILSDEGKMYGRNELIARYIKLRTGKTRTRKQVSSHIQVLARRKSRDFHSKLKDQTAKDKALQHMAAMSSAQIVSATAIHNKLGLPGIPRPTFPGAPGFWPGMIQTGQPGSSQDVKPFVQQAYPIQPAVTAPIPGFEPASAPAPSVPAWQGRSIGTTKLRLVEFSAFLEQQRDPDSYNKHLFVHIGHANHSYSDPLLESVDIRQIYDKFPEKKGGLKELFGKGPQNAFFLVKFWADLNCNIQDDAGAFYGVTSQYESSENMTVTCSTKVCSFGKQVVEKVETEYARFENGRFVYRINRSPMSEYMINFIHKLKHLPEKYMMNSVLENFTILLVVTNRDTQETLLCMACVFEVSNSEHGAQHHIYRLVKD
Protocol: HEK293A cells was seed in 6 cm dishes overnight and transfected with plasmids using PEI reagent (1 μg/μL). Briefly, proteins of interest and PEI were diluted in serum-free DMEM medium in two tubes (DNA:PEI ratio=1:2). After standing still for 5 mins, the solutions were mixed well and allowed to stand unperturbed for an additional 20 mins. The mixture was then added to dishes directly.
For in-cell labeling, HEK293A cells with or without overexpression of proteins of interest were starved in DMEM medium with 10% dialyzed fetal bovine serum (DFBS) for 1 h and labeled using the covalent probes (10 μM) overnight. The cells were then washed and harvested using cold DPBS (14190250, Life Technologies). […] The protein concentration was determined using Bio-Rad assay and adjusted to 1 mg/mL. […] The protein concentration is determined using Bio-Rad assay and adjusted to 1 mg/mL. […]
100 μL of labeled proteome was treated with 10 μL of freshly prepared “click” mixture containing 1 mM TBTA, 10 mM TCEP, 10 mM CuSO4, 1 mM Biotin-Azide and incubated for 1 h at room temperature. […] The bound proteins were eluted with a buffer containing 10 mM EDTA (pH 8.2) and 95% formamide and analyzed with SDS-PAGE. […]

SMILES: C#CCCCCCCCCCCCCCC(=O)SCCNC(=O)CCNC(=O)[C@H](O)C(C)(C)COP(=O)(O)OP(=O)(O)OC[C@H]1O[C@@H](n2cnc3c(N)ncnc32)[C@H](O)[C@@H]1OP(=O)(O)O [Alkyne Palmitoyl-CoA]
- auto-palmitoylation (labeling) of RAP1A (RAP1A): auto-palmitoylated in a dose dependent manner
- auto-palmitoylation (labeling) of IDH1 WT (IDH1WT): auto-palmitoylated in a dose dependent manner
- auto-palmitoylation (labeling) of PCNA (PCNA): auto-palmitoylated in a dose dependent manner
- auto-palmitoylation (labeling) of RRAS2 (RRAS2): auto-palmitoylated in a dose dependent manner

SMILES: C#CCCCCCCCCCCCCCCNC(=O)CI [Compound A21, N-(hexadec-15-yn-1-yl)-2-iodoacetamide]
- number of proteins collectively targeted by Compound A21, Compound B1 and Compound B4 (HEK293A cells): One hundred and sixty
- number of proteins enriched by the covalent probes also identified by SLC-ABPP (HEK293A cells): 191 proteins
- labeling efficiency of TEAD2 (TEAD2): strong labeling efficiency

SMILES: C#CCCCCCCCCCCCCCCNS(=O)(=O)C=C [Compound A26, N-(hexadec-15-yn-1-yl)ethenesulfonamide]
- labeling efficiency of TEAD2 (TEAD2): strong labeling efficiency

SMILES: C#CCCCCCCCCCCCCNC(=O)CI [Compound A63, 2-iodo-N-(tetradec-13-yn-1-yl)acetamide]
- labeling efficiency of TEAD2 (TEAD2): strong labeling efficiency

SMILES: C#CCCCCCCCCCCCCNS(=O)(=O)C=C [Compound A64, N-(tetradec-13-yn-1-yl)ethenesulfonamide]
- labeling efficiency of TEAD2 (TEAD2): strong labeling efficiency

SMILES: C#CCCCCCCCCCCCCCCNC(=O)CBr [Compound B1, 2-bromo-N-(hexadec-15-yn-1-yl)acetamide]
- number of proteins collectively targeted by Compound A21, Compound B1 and Compound B4 (HEK293A cells): One hundred and sixty
- number of proteins enriched by the covalent probes also identified by SLC-ABPP (HEK293A cells): 191 proteins
- labeling efficiency of TEAD2 (TEAD2): strong labeling efficiency

SMILES: C#CCCCCCCCCCCCCNC(=O)CBr [Compound B4, 2-bromo-N-(tetradec-13-yn-1-yl)acetamide]
- number of proteins collectively targeted by Compound A21, Compound B1 and Compound B4 (HEK293A cells): One hundred and sixty
- number of proteins enriched by the covalent probes also identified by SLC-ABPP (HEK293A cells): 191 proteins
- effect of mutating cysteine 344 (C344S) on labeling of Myc-TEAD1 by the probe (Myc-TEAD1 C344S mutant): inhibited labeling
- labeling efficiency of TEAD2 (TEAD2): strong labeling efficiency

— patent US20260103438A1, “PROBES AND METHODS TO IDENTIFY LIGANDABLE FATTY ACYLATION SITES FOR THERAPEUTIC TARGET IDENTIFICATION” (The General Hospital Corporation, priority 2022, published 2026)
